Measurements reported in US4929626A, “α-substituted 4-(quinolin-2-yl-methoxy)phenylacetic acids and esters and lipoxygenase inhibition therewith” (Bayer Aktiengesellschaft, priority 1988, dated 1990).
Structures can show the parent of a compound that is named as a salt.

Experiments:
lipoxygenase = assay: Lipoxygenase inhibition: release of leukotriene B4 (LTB4) by polymorphonuclear rat leukocytes (PMN) after Ca ionophore, reverse phase HPLC; format: cell-based
Method: (§1) The pharmacological activity data of the substances according to the invention are determined by the following method: As a measure of the lipoxygenase inhibition, the release of leukotriene B4 (LTB4) by polymorphonuclear rat leukocytes (PMN) was determined after addition of substances and Ca ionophore by means of reverse phase HPLC according to Borgeat, P. et al., Proc. Nat. Acad. Sci. 76, 2148-2152 (1979). The in vivo activity of the compounds was determined using the mouse ear inflammation model according to Young, J. M. et al., J. of Investigative Dermatology 82, 367-371 (1984).

mouse ear inflammation = assay: Mouse ear inflammation model (in vivo activity); details: 100 mg/kg p.o.
Method: as §1

Structure (SMILES)	IC50 (lipoxygenase) [nM]	Inhibition of inflammation % (mouse ear inflammation) [%]
CCCCC(C(=O)O)c1ccc(OCc2ccc3ccccc3n2)cc1 (stereo not shown) [Example 20, 2-[4-(Quinolin-2-yl-methoxy)phenyl]caproic acid]	55	68
CC(C)=CCC(C(=O)O)c1ccc(OCc2ccc3ccccc3n2)cc1 (stereo not shown) [Example 22, 2-[4-(Quinolin-2-yl-methoxy)phenyl]-5-methyl-4-hexenoic acid]		77
CCCCCC(O)c1cccc(OCc2ccc3ccccc3n2)c1 (stereo not shown) [2-[3-(1-hydroxyhexyl)phenoxymethyl]quinoline, reference compound]	200	24
C/C=C/CC(C(=O)OC)c1ccc(OCc2ccc3ccccc3n2)cc1 (stereo not shown) [Example 12, Methyl E-2-[4-(quinolin-2-yl-methoxy)phenyl]-4-hexenoate]		59
CCCCCC(C(=O)OC)c1ccc(OCc2ccc3ccccc3n2)cc1 (stereo not shown) [Example 10, Methyl 2-[4-(quinolin-2-yl-methoxy)phenyl]heptanoate]		61

The next lines start with results.

IC50 (lipoxygenase) [nM]	Structure (SMILES)	Inhibition of inflammation % (mouse ear inflammation) [%]
63	CCCCC(C(=O)OCC(=O)OC)c1ccc(OCc2ccc3ccccc3n2)cc1 (stereo not shown) [Example 27, Methoxycarbonylmethyl 2-[4-(quinolin-2-yl-methoxy)phenyl]caproate hydrochloride]	
55	CCCCC(C(=O)OCC(=O)O)c1ccc(OCc2ccc3ccccc3n2)cc1 (stereo not shown) [Example 29, Carboxymethyl 2-[4-(quinolin-2-yl-methoxy)phenyl]caproate]	72
